From PMC11853379, “Glioblastoma Cell Migration, Invasion and Vasculogenic Mimicry Downmodulated by Novel uPAcyclin Derivatives” (Cells, 2025)
Positions of bridges follow the written chain, without caps; N, C: chain ends. Residues, ends and D or L forms follow the SMILES beside them.

Test system: U87-MG cells
Assay: F-actin cytoskeletal rearrangement, rhodamine-phalloidin staining
Assay type: cell-based, human
Settings: 100 nM peptide pre-incubated 40 min 37 °C, then 5% FBS 3 h
Method: The U87-MG cells were analyzed for their cytoskeletal organization upon exposure to the indicated peptides. Briefly, 2 × 10^5 cells/sample were harvested via mild trypsinization, pre-treated for 40 min at 37 °C with 100 nM of selected peptides, and incubated with 5% FBS for 3 h at 37 °C. Samples diluted in a serum-free medium were included as negative controls. Then cells were fixed, permeabilized, and stained with 0.1 μg/mL rhodamine–phalloidin (Sigma-Merck, St. Louis, MO, USA) for 40 min at rt. To stain nuclei, the slides were incubated with 20 ng/mL DAPI (4′,6-Diamidino-2- phenylindole, Sigma-Merck, St. Louis, MO, USA) for 10 min at rt, mounted with Mowiol Mounting Medium (Sigma-Merck, St. Louis, MO, USA), and examined with the DMI6000 Leica Inverted Fluorescence Microscope ([…], Milan, Italy) at 40× magnification. At least 4 fields/samples were acquired, and the total fluorescence was measured with ImageJ.
Figure 5 Representative images of U87-MG cytoskeletal rearrangements. […] F-actin was detected via staining with rhodamine–phalloidin, as specified in the Methods section, using the Leica DMI 6000 Inverted Microscope at 40× magnification. […] In the histogram, the results are expressed as a percentage of total fluorescence intensity in the absence of FBS and peptide (no peptide); ** p-value < 0.005, * p ≤ 0.05.

| SMILES | reduction in total F-actin fluorescence (inhibition of cytoskeletal rearrangements) |
| --- | --- |
| CC(=O)N[C@@H](CCCCN)C(=O)N[C@@H](C)C(=O)N[C@H]1CCC(=O)NCCCC[C@@H](C(N)=O)NC(=O)[C@H](CC(C)C)NC(=O)[C@H](CCC(=O)O)NC(=O)[C@H](CCC(=O)O)NC(=O)[C@@H]2CCCN2C(=O)[C@H](C)NC(=O)[C@H](CO)NC1=O [[Ala^2,Ala^5]uPAcyclin] (Ac-KAESAPEELK-NH2; lactam 3-10) | 50% |
| CC(=O)N[C@@H](CCCCN)C(=O)N1CCC[C@H]1C(=O)N[C@H]1CCC(=O)NCCCC[C@@H](C(N)=O)NC(=O)[C@H](CC(C)C)NC(=O)[C@H](CCC(=O)O)NC(=O)[C@H](CCC(=O)O)NC(=O)[C@@H]2CCCN2C(=O)[C@@H]2CCCN2C(=O)[C@H](CO)NC1=O [uPAcyclin] (Ac-KPESPPEELK-NH2; lactam 3-10) | 35% |
